# From patent publication US8129384B2, “Imidazo[1,2-a]pyrazines as orexin receptor antagonists” (Glaxo Group Limited, priority 2008, dated 2012)
# Counter-ions that a name gives are not always drawn.
# Tests used:
# [1] = molecular target: T1, human cloned orexin-2 receptor (Homo sapiens, UniProt O43614); assay: Antagonist affinity at human Orexin-2 receptor using FLIPR ([Ca2+]i); assay type: cell-based; settings: CHO-hOX2 cells, EC80 hOrexinA stimulus, functional pKi from IC50 by modified Cheng-Prusoff correction; read-out: fpKi value at the human cloned orexin-2 receptor (converted)
# T1 construct: expressed in transfected cells
# T1 sequence (O43614 1-444): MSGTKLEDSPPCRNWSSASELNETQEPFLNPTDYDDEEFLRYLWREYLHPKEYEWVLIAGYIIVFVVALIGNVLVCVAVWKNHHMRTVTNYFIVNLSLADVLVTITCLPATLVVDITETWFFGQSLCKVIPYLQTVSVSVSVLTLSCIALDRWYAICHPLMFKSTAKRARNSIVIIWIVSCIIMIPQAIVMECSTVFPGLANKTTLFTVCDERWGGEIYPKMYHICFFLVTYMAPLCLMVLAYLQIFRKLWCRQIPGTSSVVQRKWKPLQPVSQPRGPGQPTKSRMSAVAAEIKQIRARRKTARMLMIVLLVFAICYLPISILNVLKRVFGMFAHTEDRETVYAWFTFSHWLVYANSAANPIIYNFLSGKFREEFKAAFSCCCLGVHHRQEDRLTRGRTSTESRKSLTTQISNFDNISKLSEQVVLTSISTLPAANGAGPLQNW
# Procedure: (§1) Determination of Antagonist Affinity at Human Orexin-1 and 2 Receptors Using FLIPR
# (§2) Adherent Chinese Hamster Ovary (CHO) cells, stably expressing the recombinant human Orexin-1 (hOX1) or human Orexin-2 receptors (hOX2), were maintained in culture in Alpha Minimum Essential Medium (Gibco/Invitrogen, cat. no.; 22571-020), supplemented with 10% decomplemented foetal bovine serum (Life Technologies, cat. no. 10106-078) and 400 ug/mL Geneticin G418 (Calbiochem, cat. no. 345810). Cells were grown as monolayers under 95%:5% air:CO2 at 37° C. and passaged every 3-4 days. The highest passage used was 25. […]
# (§3) An agonist stimulus 384-well plate containing 50 μL/well of human orexin A (hOrexinA) was prepared just before using by diluting with buffer a stock plate: final concentration is equivalent to the calculated EC80 for hOrexinA. […]
# (§4) The loaded cells were then incubated for 10 min at 37° C. with test compound. The plates were then placed into a FLIPR™ (Molecular Devices, UK) to monitor cell fluorescence (λex=488 nm, λEM=540 nm) (Sullivan E, Tucker E M, Dale I L. Measurement of [Ca^2+]i using the fluometric imaging plate reader (FLIPR). In: Lambert D G (ed.), Calcium Signaling Protocols. New Jersey: Humana Press, 1999, 125-136). A baseline fluorescence reading was taken over a 5 to 10 second period, and then 10 μL of EC80 hOrexinA solution was added. […]
# [2] = molecular target: T2, human cloned orexin-1 receptor (Homo sapiens, UniProt O43613); assay: Antagonist affinity at human Orexin-1 receptor using FLIPR ([Ca2+]i); assay type: cell-based; settings: CHO-hOX1 cells, EC80 hOrexinA stimulus, functional pKi from IC50 by modified Cheng-Prusoff correction; read-out: fpKi value at the human cloned orexin-1 receptor (converted)
# T2 construct: expressed in transfected cells
# T2 sequence (O43613 1-425): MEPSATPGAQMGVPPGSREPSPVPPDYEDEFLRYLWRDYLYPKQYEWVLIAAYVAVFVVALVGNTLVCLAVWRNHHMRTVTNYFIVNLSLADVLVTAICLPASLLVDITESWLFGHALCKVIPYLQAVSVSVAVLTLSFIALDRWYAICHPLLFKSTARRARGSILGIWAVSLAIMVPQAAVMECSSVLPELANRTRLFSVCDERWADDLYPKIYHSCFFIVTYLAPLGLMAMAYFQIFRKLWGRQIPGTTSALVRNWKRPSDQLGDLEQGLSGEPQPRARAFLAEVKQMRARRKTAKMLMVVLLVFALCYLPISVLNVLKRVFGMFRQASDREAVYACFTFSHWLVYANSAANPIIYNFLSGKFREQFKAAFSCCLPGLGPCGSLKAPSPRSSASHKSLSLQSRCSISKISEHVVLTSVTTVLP
# Procedure: as §1, §2, §3, §4
structure (smiles),measurement,setting,value
"Cc1cn2cc(C[C@@H]3CCCCN3C(=O)c3nc(C)sc3-c3ccccc3)nc2c(C)n1 [Example 1, 6,8-dimethyl-2-({(2S)-1-[(2-methyl-5-phenyl-1,3-thiazol-4-yl)carbonyl]-2-piperidinyl}methyl)imidazo[1,2-a]pyrazine (HCl salt)]",Ki,[1],6.31 nM
same,Ki,[2],5.01 nM
